Legend:
[1] = Solubility in phosphate buffer (pH 7.4); type: physicochemical
Procedure: (i) Solubility in phosphate buffer (pH 7.4). For calibration, approximately 2 mg of GE81112A was weighed into a HPLC glass vial. DMSO was added to reach a target concentration of 2 mg/mL. Dilutions for calibration (10 μg/mL, 50 μg/mL, and 100 μg/mL) were prepared by adding adjusted volumes of DMSO and were correlated with ultraperformance liquid chromatography (UPLC)-UV peak areas at 220 nm. For solubility determinations, 2 mg of GE81112A was weighed into a HPLC glass vial. Phosphate buffer (pH 7.4) was added to reach a target concentration of 2 mg/mL. The vial was shaken for 16 h at 25°C, with protection from light, on an Eppendorf thermomixer at 600 rpm, followed by centrifugation at 10,000 rpm for 5 min at 25°C and filtration through a 0.45-μm filter. The filtrated supernatant was analyzed (UPLC-UV, λ = 220 nm), and the concentration of the analyte in the filtrate was calculated based on the peak area/real concentration ratio from previous calibration runs.

primary rat hepatocytes = experiment: Cytotoxicity (CellTiter-Glo ATP and neutral red uptake); type: cell-based
Procedure: The toxicity of GE81112A toward human hepatocellular carcinoma HepG2 HB-8065 (ATCC) cells and freshly isolated primary Sprague-Dawley rat hepatocytes (Charles River) was assessed by using the CellTiter-Glo ATP-monitoring kit (Promega) and by quantifying the ability to store the dye neutral red (neutral red uptake [NRU] solution; Sigma-Aldrich, St. Louis, MO, USA). The assay was conducted in 96-well microtiter plates in a test volume of 200 μL. GE81112A was tested in an 8-fold 1:2 dilution series with a final concentration range of […]. HepG2 cells or primary hepatocytes were maintained at 37°C in 5% CO2 in DMEM-F-12 medium containing 1% nonessential amino acids, 1% sodium pyruvate, and 10% heat-inactivated FCS. Prior to each test, 100 μL of culture medium was added to each well (each containing about 20,000 cells), and the plates were incubated for 16 h as described above. GE81112A was diluted in culture medium to obtain appropriate concentrations and was added to the wells as six replicates. […] After incubation for 24 h as described above, cell viability was calculated either by cell lysis and subsequent luminometric quantification of the ATP concentration in each sample or by measurement of the amount of neutral red taken up by the cells. NRU was measured at 540 nm (Tecan Genios Pro) after 3 h of incubation with NRU solution and subsequent cell lysis. […]

Plasma stability = type: in vitro ADME; conditions: for Degradation: after 4 h
Procedure: For plasma clearance, peptides were dissolved as 1 mM stock solutions in sterile deionized water and incubated at 37°C in 500 μL plasma derived from different species (human, mouse, and rat) at a final concentration of 5 μM. At different time points (0, 1, and 4 h), 100-μL samples were transferred to 500 μL ethanol containing 0.5% (vol/vol) ammonia, and plasma proteins were precipitated for 20 min at 1,735 × g. Each 10-μL supernatant sample was separated on a Triart C18 column (1.9 μm, 20 by 2 mm; YMC, Kyoto, Japan) with an ascending acetonitrile gradient in water (supplemented with 0.1% formic acid), at a flow rate of 500 μL/min. Samples were analyzed in triplicate by LC-MS/MS as above, and the stability of the parent peptides was evaluated based on the comparison of blank samples with incubated samples.

CaCo2/TC7 cells = experiment: Cellular permeability assay using the CaCo2/TC7 cell line; type: in vitro ADME, human; conditions: predicted from CaCo2/TC7 permeability
Procedure: (§1) CaCo2/TC7 cells were seeded in a Falcon 24-well multiwell insert system with 1.0-μm-pore high-density polyethylene terephthalate (PET) membrane plates, at a density of 60,000 cells per well in DMEM (high glucose, with Glutamax I, without HEPES, with 20% fetal calf serum [FCS], and with penicillin-streptomycin). The cells were incubated for at least 21 days to ensure complete differentiation, polarization, and formation of a tight barrier layer. Permeability assays were performed in Hanks’ balanced salt solution (HBSS) with sodium taurocholate (186 μM), HEPES (10 mM), and bovine serum albumin (BSA) (0.5% [wt/vol]), adjusted to pH 7.4 with sodium hydroxide (1 N). GE81112A at 1 and 20 μM was assayed for 120 min in the apical-to-basolateral direction with an apical pH of 7.4 and a basolateral pH of 7.4, without a BSA gradient (0.5%) on either side. After the incubation period, apical and basolateral concentrations of GE81112A were determined using liquid chromatography-tandem mass spectrometry (LC-MS/MS).

[2] = as above; type: in vitro ADME, human; conditions: human, Caco-2; 1 or 20 μM, apical-to-basolateral, 120 min, pH 7.4; read-out: Apparent permeability
Procedure: as §1

CYP3A4 = biological target: T1, CYP3A4 (Homo sapiens, UniProt P08684); experiment: CYP inhibition IC50 shift assay in human liver microsomes; type: in vitro ADME; conditions: concentrations of up to 50 μM
T1 construct: the reaction mixture was prepared with a human liver microsome concentration of 0.1 mg/mL; from tissue; host or cells: human liver microsomes
T1 sequence (P08684 whole entry): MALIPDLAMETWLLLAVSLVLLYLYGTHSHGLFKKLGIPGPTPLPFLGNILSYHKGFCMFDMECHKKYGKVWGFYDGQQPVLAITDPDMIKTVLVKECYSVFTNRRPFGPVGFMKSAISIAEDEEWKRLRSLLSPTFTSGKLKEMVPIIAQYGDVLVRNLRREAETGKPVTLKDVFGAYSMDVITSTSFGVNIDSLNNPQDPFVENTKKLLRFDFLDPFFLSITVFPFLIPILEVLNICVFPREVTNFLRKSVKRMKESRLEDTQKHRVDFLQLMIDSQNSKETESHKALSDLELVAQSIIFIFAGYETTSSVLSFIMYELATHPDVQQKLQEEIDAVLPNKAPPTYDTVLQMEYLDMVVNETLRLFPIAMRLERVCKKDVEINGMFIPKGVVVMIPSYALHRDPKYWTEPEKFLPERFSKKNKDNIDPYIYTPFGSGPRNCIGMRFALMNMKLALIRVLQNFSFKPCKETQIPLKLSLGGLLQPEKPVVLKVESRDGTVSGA
Procedure: To examine the potential for time-dependent and direct competitive CYP3A4 inhibition, the reaction mixture was prepared with a human liver microsome concentration of 0.1 mg/mL. GE81112A was added to final concentrations of 50, 25, 10, 5, 2, 0.4, and 0.08 μM. Mixtures were brought to 37°C, with the addition of an NADPH-generating system (EDTA, 1 mM; MgCl2, 3 mM; β-NADPH, 1 mM; glucose 6-phosphate, 5 mM final concentration) in water to one set of reaction mixtures and water to a second set of reaction mixtures. The reaction mixtures were preincubated for 45 min. A CYP isoform-selective substrate (3 μM midazolam or 50 μM testosterone) was added to the reaction mixtures, and NADPH was added to the second set of reaction mixtures for an additional 10-min incubation period. The reactions were stopped by the addition of 200 μL internal standard solution in acetonitrile.
Both incubation plates (for midazolam and testosterone) were centrifuged at 3,000 rpm for 10 min. The samples were analyzed using LC-MS/MS. Parallel analysis of the CYP3A4 substrate midazolam and the CYP3A4 substrate testosterone was performed. The calculations of 50% inhibitory concentration (IC50) values and IC50 shift values were performed by using 4-paratemeter curve fitting.

In the case of `NC(=O)OC[C@@H](O)C[C@H](NC(=O)[C@H]1NCCC[C@H]1O)C(=O)N[C@@H](Cc1c[nH]cn1)C(=O)N[C@H](C(=O)O)[C@H](O)c1cnc(Cl)[nH]1` [GE81112A], the solubility at 16 h [1] is reported as > 500 µg/mL, the “No observed effect concentration (NOEC)” value (primary rat hepatocytes; 24 h, highest concentration with cell viability of >80%) is reported as 15.6 µM and the “Overview finding: Cytotoxicity (rat hepatocytes/HepG2 cells)” value (primary rat hepatocytes; Table 3 summary rating) is reported as “+/− (to be monitored)”. For the same compound, the metabolised at 1 h, 1 μM (Plasma stability; human blood plasma, 37°C, 1 h, read-out: Hydrolysis) was 3%, the metabolised at 4 h, 1 μM (Plasma stability; human blood plasma, 37°C, 4 h, read-out: Hydrolysis) was 27% and the Degradation (Plasma stability; mouse blood plasma) was “No degradation”. The Degradation (Plasma stability; rat blood plasma) was “No degradation”, the “Absorption in the human intestine (predicted)” value (CaCo2/TC7 cells) was “low” and the Papp at 120 min [2] was 0.028 to 0.316 ×10⁻⁶ cm/s. For the same compound, the “Direct competitive inhibition of CYPA4” value (CYP3A4) was “not observed” and the “Time-dependent inhibition of CYPA4” value (CYP3A4) was “not observed”.
